Source: PMC5753150 (Beilstein Journal of Organic Chemistry, 2017)
“Also recorded” adds a separate entry of the source. *1 amine or outer side, *2 acyl side, *3 side chain or, on linkers, in order; H or OH if unused. Where a SMILES comes first, the peptide text is derived from it. [ ]: non-standard residue; d: D form. X1 = C[C@@H](CC(F)(F)F)[C@H](N[*:1])C(=O)[*:2]; 2Abz = Nc1ccccc1C(=O)O

Tests used:
[1] = test system: proteinase K (EC 3.4.21.64); assay: proteinase K in 50 mM Tris/HCl buffer, containing 10 mM CaCl2 pH 7.5; settings: tritirachium album, 37 °C, up to 24 h
pepsin (EC 3.4.23.1) [2] = assay: pepsin in 10 mM acetate buffer, pH 4.0; settings: porcine stomach mucosa, 30 °C, up to 24 h
elastase (EC 3.4.21.36) [3] = assay: elastase in 100 mM Tris/HCl buffer, pH 8.4; settings: porcine pancreas, 37 °C, up to 24 h
[4] = test system: α-chymotrypsin (EC 3.4.21.1); assay: α-chymotrypsin in 10 mM phosphate buffer, pH 7.4; settings: bovine pancreas, 30 °C, up to 24 h
[5] = molecular target: T1, α-chymotrypsin (EC 3.4.21.1) (Bos taurus, UniProt P00766); assay: Protease digestion assay with α-chymotrypsin (FL-RP-HPLC); assay type: in vitro ADME, bovine
T1 construct: purchased Sigma Aldrich; host or cells: bovine pancreas
Experimental: The FA peptide was used as a reference. […] All experiments were performed in triplicate.
The used linear gradients are
chromatograms where an insufficient baseline separation was observed,
(proteinase K)]. The obtained data were analyzed with EZChrom Elite software
Method Time [min] Water + 0.1% (v/v) TFA [%] ACN + 0.1% (v/v) TFA [%]

elastase (EC 3.4.21.36) [6] = molecular target: elastase (EC 3.4.21.36) (Sus scrofa, UniProt P00772)
Experimental: (§1) The course of proteolytic digestion was characterized by an analytical HPLC-assay with fluorescence detection. For quantification of substrate degradation, integration of the corresponding HPLC peak was conducted. Cleavage products were identified by ESI–ToF mass spectrometry (see Supporting Information File 1, Tables S4–S7).
(§2) All peptides employed in the degradation studies were used as the TFA salts obtained after lyophilization. Stock solutions of α-chymotrypsin (from bovine pancreas, EC 3.4.21.1, ≥40.0 units/mg of protein, Sigma Aldrich, St. Louis, MO, USA), and pepsin (from porcine stomach mucosa, EC 3.4.23.1, ≥250 units/mg of protein, Sigma Aldrich, St. Louis, MO, USA) were prepared at concentrations of 1 mg/mL in phosphate buffer (10 mM, pH 7.4), or in acetate buffer (10 mM, pH 4.0), respectively. For proteinase K (from tritirachium album, EC 3.4.21.64, ≥30 units/mg of protein, Sigma Aldrich, St. Louis, MO, USA) and elastase (from porcine pancreas, EC 3.4.21.36, 6.2 units/mg of protein, Sigma Aldrich, St. Louis, MO, USA) stock solutions were prepared also at concentrations of 1 mg/mL in tris/HCl (50 mM) + CaCl2 (10 mM) buffer (pH 7.5), or in tris/HCl buffer (100 mM, pH 8.4), respectively. Peptides (0.002 mmol) were prepared as stocks in DMSO (100 µL) and incubated with the respective enzyme at 30 °C (for α-chymotrypsin and pepsin) or 37 °C (for proteinase K and elastase) with shaking at 300 rpm in a thermomixer over a period of 24 h. The reaction mixture consisted of DMSO (15 µL), corresponding buffer (25 µL), peptide solution (5 µL) and the corresponding enzyme solution (5 µL). […] Aliquots of 5 µL were taken at fixed time points (0, 15, 30, 60, 90, 120 min as well as 3 h and 24 h) and either quenched with ACN containing 0.1% (v/v) TFA (95 µL), in the case of α-chymotrypsin, proteinase K and elastase, or 2% aqueous ammonia (95 µL), in the case of pepsin. All samples were subjected to analytical HPLC on a LaChrom-ELITE-HPLC-System equipped with a fluorescence detector (VWR International Hitachi, Darmstadt, Germany). A monolithic reversed-phase C8 Chromolith® Performance HPLC column (100 × 4.6 mm, Merck KGaA, Darmstadt, Germany) was used to resolve and quantify the products of digestion. The used system and gradients are described in detail in Supporting Information File 1. Detection based on the Abz label was carried out using a fluorescence detector with λex = 320 nm and λem = 420 nm. In all cases, the peaks corresponding to the starting materials (full-length peptides) or the N-terminal fragments (products) were integrated and used to determine the velocity of the reaction (see Supporting Information File 1). […] Each fragment cleaved from the full-length peptide was identified by ESI–ToF mass analysis on an Agilent 6220 ESI–ToF–MS spectrometer (Agilent Technologies, Santa Clara, CA, USA, see Supporting Information File 1). All experiments were performed in triplicate.
(§3) 2130) with solvent degasser, an autosampler (L-2200) with a 100 µL sample loop, a diode array flow detector (L-2455), a fluorescence detector (L-2485) and a high pressure gradient mixer. As eluents water and ACN, both containing 0.1% (v/v) TFA were used, and a flow rate of 3 mL/min was applied. The used linear gradients are […]
(§4) For the non-fluorinated peptides method A was used to follow the digestion process, and for the fluorinated peptides method B was applied. For […]
(§5) The obtained data were analyzed with EZChrom Elite software
(§6) (version 3.3.2, Agilent Technologies, Santa Clara, CA, USA).

pepsin (EC 3.4.23.1) [7] = molecular target: pepsin (EC 3.4.23.1) (Sus scrofa, UniProt P00791); assay: in vitro
Experimental: as §1, §2, §3, §4, §5, §6

[8] = elastase, 100 mM Tris/HCl buffer pH 8.4, 37 °C, FL-RP-HPLC

Chain of elastase (EC 3.4.21.36) (Sus scrofa, UniProt P00772) (P00772 27-266): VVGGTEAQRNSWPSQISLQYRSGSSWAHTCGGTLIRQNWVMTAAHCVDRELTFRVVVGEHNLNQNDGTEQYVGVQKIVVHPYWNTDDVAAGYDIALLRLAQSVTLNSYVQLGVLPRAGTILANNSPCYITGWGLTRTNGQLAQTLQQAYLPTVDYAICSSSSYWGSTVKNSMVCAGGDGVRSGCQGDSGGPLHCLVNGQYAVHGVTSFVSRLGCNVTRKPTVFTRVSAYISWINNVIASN
Chain of pepsin (EC 3.4.23.1) (Sus scrofa, UniProt P00791) (P00791 60-385): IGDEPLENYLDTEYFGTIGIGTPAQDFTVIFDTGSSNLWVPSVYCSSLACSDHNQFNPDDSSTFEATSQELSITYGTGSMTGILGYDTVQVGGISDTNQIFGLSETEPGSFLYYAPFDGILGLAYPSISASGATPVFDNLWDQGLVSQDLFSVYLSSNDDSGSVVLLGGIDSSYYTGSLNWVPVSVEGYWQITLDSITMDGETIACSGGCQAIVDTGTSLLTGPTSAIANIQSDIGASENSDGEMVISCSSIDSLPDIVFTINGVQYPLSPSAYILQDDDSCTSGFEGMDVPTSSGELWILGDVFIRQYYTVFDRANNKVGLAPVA

Row | Compound | cleaved bond [1] | cleaved bond (pepsin (EC 3.4.23.1) [2]) | cleaved bond (elastase (EC 3.4.21.36) [3]) | not cleaved (elastase (EC 3.4.21.36) [3]) | cleaved bond [4] | also measured
1 | Abz-KAAFTfIleAAAK | A-F and A-A | F-TfIle | A-A | no fragments with Phe in the P1 position observed | F-TfIle, major | 
2 | Abz-KAAFIleAAAK | A-F and A-A |  | A-F and A-A | no fragments with Phe in the P1 position observed | F-Ile, major | 
3 | Abz-KALeuFAAAAK | Leu-F and A-A | F-A | A-Leu and A-A and A-K |  | F-A, major | 
4 | CC(C)C[C@H](NC(=O)[C@H](C)NC(=O)[C@H](Cc1ccccc1)NC(=O)[C@H](C)NC(=O)[C@H](C)NC(=O)[C@H](CCCCN)NC(=O)c1ccccc1N)C(=O)N[C@@H](C)C(=O)N[C@@H](C)C(=O)N[C@@H](CCCCN)C(=O)O [P2’-LeuFA] (H-[2Abz]KAAFALAAK-OH) |  |  |  |  |  | Proteolytic stability compared to control peptide FA after 120 min ([5]; α-chymotrypsin, 10 mM phosphate buffer pH 7.4, 30 °C, 120 min, FL-RP-HPLC, three independent measurements): more stable against digestion; Proteolytic stability compared to control peptide FA after 24 h ([5]; α-chymotrypsin, 10 mM phosphate buffer pH 7.4, 30 °C, 24 h, FL-RP-HPLC, three independent measurements): accelerated proteolysis compared to FA; Degradation state after incubation for 120 min (elastase (EC 3.4.21.36) [6]; elastase (porcine pancreas), 100 mM Tris/HCl buffer pH 8.4 with DMSO, 37 °C, 120 min, FL-RP-HPLC, mean of three independent measurements): somewhat digested; Proteolytic stability compared to control peptide FA after 120 min (pepsin (EC 3.4.23.1) [7]; pepsin, 10 mM acetate buffer pH 4.0, 30 °C, 120 min, FL-RP-HPLC): degraded faster than the control FA
5 | Abz-KAAFATfIleAAK | A-F | F-A and A-TfIle and A-F | A-F and TfIle-A | no fragments with Phe in the P1 position observed | F-A, major | 
6 | Abz-KAAFAHfLeuAAK | A-HfLeu; also recorded: HfLeu-A | A-HfLeu | K-A and A-A and A-F and A-HfLeu | no fragments with Phe in the P1 position observed | F-A, major | not cleaved (pepsin (EC 3.4.23.1) [2]): not hydrolyzed at the designed cleavage site
7 | Abz-KAIleFAAAAK | F-A | F-A | Ile-F and A-A and A-K | no fragments with Phe in the P1 position observed | F-A, major | 
8 | CC(C)C[C@H](NC(=O)[C@H](C)NC(=O)[C@H](CCCCN)NC(=O)c1ccccc1N)C(=O)N[C@@H](Cc1ccccc1)C(=O)N[C@@H](C)C(=O)N[C@@H](C)C(=O)N[C@@H](C)C(=O)N[C@@H](C)C(=O)N[C@@H](CCCCN)C(=O)O [P2-LeuFA] (H-[2Abz]KALFAAAAK-OH) |  |  |  |  |  | Percentage of substrate remaining after incubation for 24 h ([5]; α-chymotrypsin (bovine pancreas), 10 mM phosphate buffer pH 7.4 with DMSO, 30 °C, 24 h, FL-RP-HPLC peak integration (Abz, λex 320/λem 420 nm), average of three independent measurements): complete proteolysis
9 | CC[C@H](C)[C@H](NC(=O)[C@H](Cc1ccccc1)NC(=O)[C@H](C)NC(=O)[C@H](C)NC(=O)[C@H](CCCCN)NC(=O)c1ccccc1N)C(=O)N[C@@H](C)C(=O)N[C@@H](C)C(=O)N[C@@H](C)C(=O)N[C@@H](CCCCN)C(=O)O [P1’-IleFA] (H-[2Abz]KAAFIAAAK-OH) |  |  |  |  |  | Proteolytic stability compared to control peptide FA after 24 h (elastase (EC 3.4.21.36) [6]; [8]): more stable than the control peptide FA
10 | Abz-KAAFAIleAAK | A-F and A-Ile | F-A | A-F and Ile-A and A-A and A-K | no fragments with Phe in the P1 position observed | F-A, major | 
11 | Abz-KAAFAAAAK | A-A | F-A | A-A | no fragments with Phe in the P1 position observed | F-A, major | 
12 | Abz-KAAFLeuAAAK | A-F and A-A | F-Leu; also recorded: Leu-Ala | K-A and A-A and A-F and A-K | no fragments with Phe in the P1 position observed | F-Leu, major; also recorded: Leu-A | 
13 | C[C@H](NC(=O)[C@H](C)NC(=O)[C@H](C)NC(=O)[C@H](Cc1ccccc1)NC(=O)[C@H](C)NC(=O)[C@H](C)NC(=O)[C@H](CCCCN)NC(=O)c1ccccc1N)C(=O)N[C@@H](C)C(=O)N[C@@H](CCCCN)C(=O)O [FA] (H-[2Abz]KAAFAAAAK-OH) |  |  |  |  |  | Percentage of substrate remaining after incubation for 24 h (pepsin (EC 3.4.23.1) [7]; pepsin (porcine stomach mucosa), 10 mM acetate buffer pH 4.0 with DMSO, 30 °C, 24 h, FL-RP-HPLC peak integration (Abz, λex 320/λem 420 nm), average of three independent measurements): almost completely degraded
14 | Abz-KAHfLeuFAAAAK | HfLeu-F and A-A | F-A and HfLeu-F | HfLeu-F and A-A | no fragments with Phe in the P1 position observed |  | not cleaved [4]: not digested at all
15 | Abz-KAAFHfLeuAAAK | A-F | F-HfLeu; also recorded: HfLeu-Ala | K-A and A-A | no fragments with Phe in the P1 position observed | F-HfLeu, major; also recorded: HfLeu-A | 
16 | C[C@H](NC(=O)[C@H](C)NC(=O)[C@@H](NC(=O)[C@H](Cc1ccccc1)NC(=O)[C@H](C)NC(=O)[C@H](C)NC(=O)[C@H](CCCCN)NC(=O)c1ccccc1N)[C@@H](C)CC(F)(F)F)C(=O)N[C@@H](C)C(=O)N[C@@H](CCCCN)C(=O)O [P1’-TfIleFA] (H-[2Abz]KAAF[X1]AAAK-OH) |  |  |  |  |  | Proteolytic stability compared to control peptide FA after 24 h (elastase (EC 3.4.21.36) [6]; [8]): comparably stable; Gain in stability upon fluorination compared to the non-fluorinated (Leu or Ile) analogue, 24 h (elastase (EC 3.4.21.36) [6]; elastase, 100 mM Tris/HCl buffer pH 8.4, 37 °C, after 24 h): accelerates enzymatic degradation
17 | Abz-KATfIleFAAAAK | F-A and A-A |  | TfIle-F and A-A | no fragments with Phe in the P1 position observed |  | not cleaved (pepsin (EC 3.4.23.1) [2]): 100% after 24 h; not cleaved [4]: not digested at all
